The source of these data is ChEMBL document CHEMBL5291721, “A preclinical secondary pharmacology resource illuminates target-adverse drug reaction associations of marketed drugs” (Nat Commun, 2023).

The target of assay [1] is Beta-3 adrenergic receptor (Homo sapiens, UniProt P13945).
In a further assay the target is T1, B1 bradykinin receptor (Homo sapiens, UniProt P46663).
T1 sequence (P46663 whole entry): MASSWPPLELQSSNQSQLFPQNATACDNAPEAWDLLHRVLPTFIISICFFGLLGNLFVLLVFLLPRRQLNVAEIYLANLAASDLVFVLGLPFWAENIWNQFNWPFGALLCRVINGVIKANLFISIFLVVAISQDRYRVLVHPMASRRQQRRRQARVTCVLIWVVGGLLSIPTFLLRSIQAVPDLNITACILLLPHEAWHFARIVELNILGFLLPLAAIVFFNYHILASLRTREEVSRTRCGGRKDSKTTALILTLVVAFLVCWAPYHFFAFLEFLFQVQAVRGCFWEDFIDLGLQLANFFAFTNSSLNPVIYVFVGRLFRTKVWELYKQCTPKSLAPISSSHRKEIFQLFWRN

In assay [2] the target is Voltage-dependent N-type calcium channel subunit alpha-1B (Rattus norvegicus, UniProt Q02294). The class given is functional.
The target in another assay is Histamine H2 receptor (Homo sapiens, UniProt P25021).
Assay [3] deals with T2, 5-hydroxytryptamine receptor 1A (Homo sapiens, UniProt P08908).
T2 sequence (P08908 whole entry): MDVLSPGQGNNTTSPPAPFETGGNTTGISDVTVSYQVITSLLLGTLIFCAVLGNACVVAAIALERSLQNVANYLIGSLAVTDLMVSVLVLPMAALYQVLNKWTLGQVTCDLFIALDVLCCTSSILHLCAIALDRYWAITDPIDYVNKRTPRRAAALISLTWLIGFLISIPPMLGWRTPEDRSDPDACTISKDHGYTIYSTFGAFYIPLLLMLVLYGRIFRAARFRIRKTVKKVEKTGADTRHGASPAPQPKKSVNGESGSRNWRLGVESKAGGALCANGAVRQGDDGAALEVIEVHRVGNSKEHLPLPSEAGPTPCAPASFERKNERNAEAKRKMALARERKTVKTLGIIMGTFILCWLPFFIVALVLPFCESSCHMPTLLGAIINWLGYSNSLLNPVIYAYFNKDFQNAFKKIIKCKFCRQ

For assay [4], the target named is 5-hydroxytryptamine receptor 6 (Homo sapiens, UniProt P50406).
Assay [5] deals with 5-hydroxytryptamine receptor 7 (Homo sapiens, UniProt P34969).
Assay [6] has as its target Neurotensin receptor type 1 (Homo sapiens, UniProt P30989).
For a further assay, the target named is T3, Progesterone receptor (Homo sapiens, UniProt P06401).
T3 sequence (P06401 whole entry): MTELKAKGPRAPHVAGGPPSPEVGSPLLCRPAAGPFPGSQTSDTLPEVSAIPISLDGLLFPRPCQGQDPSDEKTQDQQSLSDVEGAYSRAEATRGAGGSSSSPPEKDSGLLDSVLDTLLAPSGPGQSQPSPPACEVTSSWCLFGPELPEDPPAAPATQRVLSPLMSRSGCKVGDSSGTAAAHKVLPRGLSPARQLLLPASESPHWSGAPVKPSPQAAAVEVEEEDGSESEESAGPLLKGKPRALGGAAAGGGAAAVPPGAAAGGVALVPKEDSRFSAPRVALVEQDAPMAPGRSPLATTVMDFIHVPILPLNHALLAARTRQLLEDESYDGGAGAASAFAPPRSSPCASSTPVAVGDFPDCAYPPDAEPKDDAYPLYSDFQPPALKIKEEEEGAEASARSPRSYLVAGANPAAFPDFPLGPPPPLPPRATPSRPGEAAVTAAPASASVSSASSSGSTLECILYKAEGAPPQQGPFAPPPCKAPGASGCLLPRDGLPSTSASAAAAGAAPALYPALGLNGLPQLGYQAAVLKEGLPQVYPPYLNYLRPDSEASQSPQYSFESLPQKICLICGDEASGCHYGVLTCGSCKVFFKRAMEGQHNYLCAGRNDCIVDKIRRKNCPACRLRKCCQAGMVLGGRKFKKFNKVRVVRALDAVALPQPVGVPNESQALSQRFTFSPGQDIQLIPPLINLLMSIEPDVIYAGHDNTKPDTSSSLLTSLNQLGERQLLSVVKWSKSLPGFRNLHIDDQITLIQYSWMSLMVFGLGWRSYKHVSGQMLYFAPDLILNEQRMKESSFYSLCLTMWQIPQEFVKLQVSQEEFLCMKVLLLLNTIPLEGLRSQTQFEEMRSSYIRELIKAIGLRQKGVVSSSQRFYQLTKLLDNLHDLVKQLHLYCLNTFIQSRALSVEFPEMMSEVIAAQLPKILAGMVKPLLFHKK

For assay [7], the target named is T2, 5-hydroxytryptamine receptor 1A. This is another data set of the same source.
In assay [8] the target is T4, Gamma-aminobutyric acid receptor subunit alpha-1/alpha-2/beta-2/gamma-2 (Homo sapiens, UniProt P14867+P18507+P47869+P47870). The class given is functional, cell-based.
For assay [9], the target named is T4, Gamma-aminobutyric acid receptor subunit alpha-1/alpha-2/beta-2/gamma-2. The class given is functional, cell-based. This is another data set of the same source.
Assay [10] deals with T5, Peroxisome proliferator-activated receptor gamma (Homo sapiens, UniProt P37231).
T5 sequence (P37231 whole entry): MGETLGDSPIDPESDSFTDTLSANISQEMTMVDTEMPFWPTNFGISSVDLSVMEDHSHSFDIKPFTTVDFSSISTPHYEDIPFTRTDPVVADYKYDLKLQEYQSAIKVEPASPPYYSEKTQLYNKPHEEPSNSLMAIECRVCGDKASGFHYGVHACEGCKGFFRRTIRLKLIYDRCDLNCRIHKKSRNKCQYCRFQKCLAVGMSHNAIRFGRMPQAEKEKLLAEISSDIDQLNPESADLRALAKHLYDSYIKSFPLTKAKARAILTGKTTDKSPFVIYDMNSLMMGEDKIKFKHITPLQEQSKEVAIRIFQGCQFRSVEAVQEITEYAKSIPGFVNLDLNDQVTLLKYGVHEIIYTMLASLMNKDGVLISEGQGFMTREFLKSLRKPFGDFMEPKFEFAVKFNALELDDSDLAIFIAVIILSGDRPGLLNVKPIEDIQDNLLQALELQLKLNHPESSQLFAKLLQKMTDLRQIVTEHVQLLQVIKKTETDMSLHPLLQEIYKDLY
The class given is functional.
Also: assay procedure not described here.

Chain of 5-hydroxytryptamine receptor 7 (P34969 whole entry): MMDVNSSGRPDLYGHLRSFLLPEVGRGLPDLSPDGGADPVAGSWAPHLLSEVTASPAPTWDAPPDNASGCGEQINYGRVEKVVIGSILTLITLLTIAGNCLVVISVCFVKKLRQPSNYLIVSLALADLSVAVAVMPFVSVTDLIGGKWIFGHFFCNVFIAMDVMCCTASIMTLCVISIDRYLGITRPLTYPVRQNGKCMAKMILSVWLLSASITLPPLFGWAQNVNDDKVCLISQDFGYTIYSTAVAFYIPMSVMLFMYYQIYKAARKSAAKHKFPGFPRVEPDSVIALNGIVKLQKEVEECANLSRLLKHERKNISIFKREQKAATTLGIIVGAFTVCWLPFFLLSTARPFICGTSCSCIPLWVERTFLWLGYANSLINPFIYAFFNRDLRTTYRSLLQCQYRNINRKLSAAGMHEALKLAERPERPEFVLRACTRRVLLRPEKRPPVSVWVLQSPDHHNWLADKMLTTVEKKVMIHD
Chain of Voltage-dependent N-type calcium channel subunit alpha-1B (Q02294 whole entry): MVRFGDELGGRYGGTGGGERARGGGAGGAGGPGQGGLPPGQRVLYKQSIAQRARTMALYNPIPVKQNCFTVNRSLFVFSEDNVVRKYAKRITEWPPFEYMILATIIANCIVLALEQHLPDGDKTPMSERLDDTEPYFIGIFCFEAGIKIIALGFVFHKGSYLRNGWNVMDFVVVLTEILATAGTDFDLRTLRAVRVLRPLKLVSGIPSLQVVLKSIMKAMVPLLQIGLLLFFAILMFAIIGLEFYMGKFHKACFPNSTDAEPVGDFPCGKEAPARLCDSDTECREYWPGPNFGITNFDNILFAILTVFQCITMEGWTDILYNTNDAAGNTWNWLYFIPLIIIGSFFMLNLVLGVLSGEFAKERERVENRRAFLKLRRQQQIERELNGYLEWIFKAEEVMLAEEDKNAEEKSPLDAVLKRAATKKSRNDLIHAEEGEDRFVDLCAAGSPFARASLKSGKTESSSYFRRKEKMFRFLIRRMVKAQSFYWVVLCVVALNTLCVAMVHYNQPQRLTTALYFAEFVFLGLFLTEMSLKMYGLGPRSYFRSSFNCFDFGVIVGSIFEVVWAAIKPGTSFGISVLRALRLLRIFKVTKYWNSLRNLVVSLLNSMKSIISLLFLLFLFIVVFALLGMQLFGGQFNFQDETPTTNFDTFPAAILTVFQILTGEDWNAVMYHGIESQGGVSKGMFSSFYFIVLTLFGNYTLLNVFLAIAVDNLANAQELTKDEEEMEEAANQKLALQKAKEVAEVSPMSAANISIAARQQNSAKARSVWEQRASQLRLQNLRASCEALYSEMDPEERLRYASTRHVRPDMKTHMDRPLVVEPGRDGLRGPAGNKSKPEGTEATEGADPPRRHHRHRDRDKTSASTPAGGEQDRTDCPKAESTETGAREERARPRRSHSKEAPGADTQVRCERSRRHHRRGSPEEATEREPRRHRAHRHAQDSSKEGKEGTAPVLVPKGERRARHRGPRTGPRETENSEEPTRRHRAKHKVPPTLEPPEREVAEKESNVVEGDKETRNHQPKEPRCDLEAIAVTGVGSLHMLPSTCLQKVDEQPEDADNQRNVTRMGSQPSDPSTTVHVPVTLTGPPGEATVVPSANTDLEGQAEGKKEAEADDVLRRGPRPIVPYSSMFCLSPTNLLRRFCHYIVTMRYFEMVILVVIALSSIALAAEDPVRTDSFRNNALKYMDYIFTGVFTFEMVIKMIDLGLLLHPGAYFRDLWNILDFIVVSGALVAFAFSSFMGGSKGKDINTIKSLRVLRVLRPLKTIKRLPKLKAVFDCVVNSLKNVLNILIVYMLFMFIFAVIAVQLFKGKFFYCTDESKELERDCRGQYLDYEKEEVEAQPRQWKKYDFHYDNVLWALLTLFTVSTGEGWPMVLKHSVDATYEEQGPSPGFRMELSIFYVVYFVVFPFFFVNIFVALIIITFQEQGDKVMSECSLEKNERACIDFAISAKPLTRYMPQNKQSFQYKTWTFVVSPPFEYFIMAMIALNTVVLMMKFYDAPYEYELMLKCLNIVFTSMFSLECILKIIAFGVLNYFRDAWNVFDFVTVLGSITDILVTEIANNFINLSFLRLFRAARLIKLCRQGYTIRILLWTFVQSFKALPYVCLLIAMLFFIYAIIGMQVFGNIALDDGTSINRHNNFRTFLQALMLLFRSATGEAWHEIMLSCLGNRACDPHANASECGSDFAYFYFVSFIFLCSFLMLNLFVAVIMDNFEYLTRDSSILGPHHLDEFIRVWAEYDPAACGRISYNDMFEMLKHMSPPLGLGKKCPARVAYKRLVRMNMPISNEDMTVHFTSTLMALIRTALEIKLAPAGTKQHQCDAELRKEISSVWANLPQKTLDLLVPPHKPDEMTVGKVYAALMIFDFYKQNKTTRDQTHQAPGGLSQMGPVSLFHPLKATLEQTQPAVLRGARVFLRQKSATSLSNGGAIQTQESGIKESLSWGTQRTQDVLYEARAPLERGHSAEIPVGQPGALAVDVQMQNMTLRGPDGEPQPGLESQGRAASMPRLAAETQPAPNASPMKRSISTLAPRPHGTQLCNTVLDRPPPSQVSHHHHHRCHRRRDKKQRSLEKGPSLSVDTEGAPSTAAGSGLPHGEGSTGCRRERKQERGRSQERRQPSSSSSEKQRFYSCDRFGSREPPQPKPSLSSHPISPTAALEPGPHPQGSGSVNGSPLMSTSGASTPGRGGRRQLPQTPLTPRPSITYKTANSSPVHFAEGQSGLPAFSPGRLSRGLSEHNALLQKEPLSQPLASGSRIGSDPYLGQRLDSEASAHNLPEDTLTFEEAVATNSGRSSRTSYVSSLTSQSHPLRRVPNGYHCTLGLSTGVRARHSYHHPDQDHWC
Chain of Neurotensin receptor type 1 (P30989 whole entry): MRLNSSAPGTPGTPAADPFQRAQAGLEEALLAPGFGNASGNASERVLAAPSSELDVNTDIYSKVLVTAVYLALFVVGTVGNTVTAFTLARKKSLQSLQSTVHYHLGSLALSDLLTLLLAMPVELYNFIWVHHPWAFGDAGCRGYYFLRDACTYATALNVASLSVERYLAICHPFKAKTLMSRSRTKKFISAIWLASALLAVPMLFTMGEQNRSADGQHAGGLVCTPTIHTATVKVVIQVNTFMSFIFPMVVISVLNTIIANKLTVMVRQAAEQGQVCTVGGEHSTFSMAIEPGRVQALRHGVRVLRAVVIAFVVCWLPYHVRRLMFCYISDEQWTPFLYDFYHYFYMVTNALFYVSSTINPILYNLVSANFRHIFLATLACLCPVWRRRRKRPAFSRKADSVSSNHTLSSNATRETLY
Chain of Beta-3 adrenergic receptor (P13945 whole entry): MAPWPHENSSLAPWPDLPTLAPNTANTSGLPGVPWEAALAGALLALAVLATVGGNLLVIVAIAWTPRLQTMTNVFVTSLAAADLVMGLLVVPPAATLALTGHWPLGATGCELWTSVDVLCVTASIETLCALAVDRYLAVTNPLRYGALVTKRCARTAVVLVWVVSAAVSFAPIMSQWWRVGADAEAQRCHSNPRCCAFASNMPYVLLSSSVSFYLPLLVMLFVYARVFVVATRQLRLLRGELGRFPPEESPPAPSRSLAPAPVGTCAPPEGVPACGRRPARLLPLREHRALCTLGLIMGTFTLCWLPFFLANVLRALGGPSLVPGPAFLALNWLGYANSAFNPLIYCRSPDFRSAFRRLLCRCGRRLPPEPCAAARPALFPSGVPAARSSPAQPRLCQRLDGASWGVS
Chain of 5-hydroxytryptamine receptor 6 (P50406 whole entry): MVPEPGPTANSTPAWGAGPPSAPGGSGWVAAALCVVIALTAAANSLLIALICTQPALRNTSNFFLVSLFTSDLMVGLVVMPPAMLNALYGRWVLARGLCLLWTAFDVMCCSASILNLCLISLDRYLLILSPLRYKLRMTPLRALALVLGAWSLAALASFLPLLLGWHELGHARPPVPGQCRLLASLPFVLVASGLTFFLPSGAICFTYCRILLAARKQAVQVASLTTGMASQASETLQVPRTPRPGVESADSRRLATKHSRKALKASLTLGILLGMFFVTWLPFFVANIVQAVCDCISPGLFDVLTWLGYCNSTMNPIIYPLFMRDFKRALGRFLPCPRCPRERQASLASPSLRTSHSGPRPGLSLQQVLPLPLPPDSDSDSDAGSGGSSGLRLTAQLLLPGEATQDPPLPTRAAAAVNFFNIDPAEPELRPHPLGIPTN
Chain of Histamine H2 receptor (P25021 whole entry): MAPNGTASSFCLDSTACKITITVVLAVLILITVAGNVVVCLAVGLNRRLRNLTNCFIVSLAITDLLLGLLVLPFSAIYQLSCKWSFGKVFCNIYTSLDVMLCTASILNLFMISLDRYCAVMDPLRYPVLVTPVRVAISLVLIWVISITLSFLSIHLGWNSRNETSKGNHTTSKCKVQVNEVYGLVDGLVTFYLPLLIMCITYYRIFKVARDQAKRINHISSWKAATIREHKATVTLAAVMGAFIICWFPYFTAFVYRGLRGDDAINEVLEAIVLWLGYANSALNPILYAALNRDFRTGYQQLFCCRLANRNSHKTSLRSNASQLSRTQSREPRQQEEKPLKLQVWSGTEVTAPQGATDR

Usually AC50 stands for the concentration at which the activity in the assay is half-maximal. In the case of `Nc1nc(N)c2nc(-c3ccccc3)c(N)nc2n1`, the AC50 was greater than 30 µM in assay [1]; greater than 10 µM on B1 bradykinin receptor; greater than 10 µM in [2]; greater than 10 µM on Histamine H2 receptor; greater than 30 µM in assay [3]; greater than 10 µM in [4]. Besides, the AC50 was greater than 10 µM in assay [5], greater than 30 µM in assay [6], greater than 30 µM at Progesterone receptor and greater than 10 µM in assay [7].

With `C[C@H]1O[C@H](O[C@H]2[C@H](O)[C@@H](O)[C@@H](O[C@H]3[C@H](O)[C@@H](O)C(O)O[C@@H]3CO)O[C@@H]2CO)[C@H](O)[C@@H](O)[C@@H]1N[C@H]1C=C(CO)[C@@H](O)[C@H](O)[C@H]1O` (stereo partly specified) [ACARBOSE], the AC50 in [1] was greater than 30 µM; at B1 bradykinin receptor, greater than 30 µM; in [2] it was greater than 10 µM; on Histamine H2 receptor, greater than 10 µM; in assay [3] it was greater than 30 µM; in assay [4], greater than 10 µM. In addition, the half-maximal activity concentration (AC50) was greater than 10 µM in assay [5], greater than 30 µM in [6], greater than 30 µM on Progesterone receptor and greater than 10 µM in [7].

For the compound `COc1cc(Nc2c(C#N)cnc3cc(OCCCN4CCN(C)CC4)c(OC)cc23)c(Cl)cc1Cl` [BOSUTINIB], the AC50 in assay [1] is 16.8 µM; at B1 bradykinin receptor, greater than 30 µM; in assay [2] it was greater than 10 µM; in [3] it was 14.2 µM; in assay [4] it was greater than 10 µM; in [5], greater than 10 µM. The values for the AC50 (in assay [6]; at Progesterone receptor; in [7]) were greater than 30 µM, greater than 30 µM and greater than 10 µM, respectively.

As for `COc1cc2c(cc1OC)C(=O)C(CC1CCN(Cc3ccccc3)CC1)C2` (stereo unspecified) [DONEPEZIL], the AC50 in [1] is greater than 30 µM; at B1 bradykinin receptor, greater than 30 µM; on Histamine H2 receptor, greater than 10 µM; in assay [4] it was greater than 10 µM; in assay [5] it was greater than 10 µM; in [6] it was greater than 30 µM. The compound further had an AC50 at Progesterone receptor greater than 30 µM.

In the case of `COC(=O)[C@@H]1CC2=CC(=O)CC[C@]2(C)[C@@]23O[C@@H]2C[C@@]2(C)[C@@H](CC[C@@]24CCC(=O)O4)[C@H]13` [EPLERENONE], the half-maximal activity concentration (AC50) in assay [1] is greater than 30 µM; at B1 bradykinin receptor it was greater than 30 µM; in assay [2], greater than 10 µM; in assay [8] it was greater than 30 µM; in assay [9] it was greater than 30 µM; on Histamine H2 receptor, greater than 10 µM. For the same compound, the AC50 is greater than 30 µM in assay [6], greater than 30 µM in assay [10] and greater than 10 µM in assay [7].

Turning to `NC(N)=Nc1nc(CSCCC(N)=NS(N)(=O)=O)cs1` [FAMOTIDINE], the AC50 was greater than 30 µM in assay [1]; greater than 30 µM on B1 bradykinin receptor; greater than 10 µM in [2]; 0.0063 µM at Histamine H2 receptor; greater than 10 µM in assay [4]; greater than 10 µM in assay [5]. Moreover, the AC50 in assay [6] is greater than 30 µM; at Progesterone receptor, greater than 30 µM; in assay [7] it was greater than 10 µM.

On to `NS(=O)(=O)c1cc2c(cc1Cl)NCNS2(=O)=O` [HYDROCHLOROTHIAZIDE], for which the concentration at half-maximal activity (AC50) is greater than 30 µM in assay [1]; greater than 30 µM on B1 bradykinin receptor; greater than 10 µM in assay [2]; greater than 10 µM at Histamine H2 receptor; greater than 10 µM in assay [4]; greater than 10 µM in assay [5]. Moreover, the values for the concentration at half-maximal activity (AC50) (in assay [6]; at Progesterone receptor; in assay [7]) were greater than 30 µM, greater than 30 µM and greater than 10 µM, respectively.

Consider `CCc1nn(CCCN2CCN(c3cccc(Cl)c3)CC2)c(=O)n1CCOc1ccccc1` [NEFAZODONE], for which the AC50 was 9.5 µM in assay [1]; greater than 30 µM on B1 bradykinin receptor; greater than 10 µM in assay [2]; 0.808 µM in [4]; 0.237 µM in assay [5]; greater than 30 µM in assay [6]. The values for the AC50 (at Progesterone receptor; in [7]) were greater than 30 µM and 0.254 µM, respectively.

For the compound `CCc1ccc(CCOc2ccc(CC3SC(=O)NC3=O)cc2)nc1` (stereo unspecified) [PIOGLITAZONE], the half-maximal activity concentration (AC50) in [1] was greater than 30 µM; on B1 bradykinin receptor, greater than 30 µM; in [2] it was greater than 10 µM; on Histamine H2 receptor, greater than 10 µM; in [3], greater than 30 µM; in assay [4], greater than 10 µM. The half-maximal activity concentration (AC50) in [5] was greater than 10 µM; in [6] it was greater than 30 µM; at Progesterone receptor, greater than 30 µM; in assay [7] it was greater than 10 µM.
